Experiments:
[1] = molecular target: Serine/threonine-protein kinase WNK1 (Homo sapiens) (UniProt Q9H4A3); test: Selectivity interaction (Kinase panel (KiNativ target engagement assay in Jurkat cells)) EUB0001635a WNK1; assay type: cell-based; conditions: at 1 µM
[2] = molecular target: T1, Inhibitor of nuclear factor kappa-B kinase subunit epsilon (Homo sapiens) (UniProt Q14164); test: Selectivity interaction (KinomeScan (DiscoverX)) EUB0000045b IKBKE
T1 sequence (whole entry): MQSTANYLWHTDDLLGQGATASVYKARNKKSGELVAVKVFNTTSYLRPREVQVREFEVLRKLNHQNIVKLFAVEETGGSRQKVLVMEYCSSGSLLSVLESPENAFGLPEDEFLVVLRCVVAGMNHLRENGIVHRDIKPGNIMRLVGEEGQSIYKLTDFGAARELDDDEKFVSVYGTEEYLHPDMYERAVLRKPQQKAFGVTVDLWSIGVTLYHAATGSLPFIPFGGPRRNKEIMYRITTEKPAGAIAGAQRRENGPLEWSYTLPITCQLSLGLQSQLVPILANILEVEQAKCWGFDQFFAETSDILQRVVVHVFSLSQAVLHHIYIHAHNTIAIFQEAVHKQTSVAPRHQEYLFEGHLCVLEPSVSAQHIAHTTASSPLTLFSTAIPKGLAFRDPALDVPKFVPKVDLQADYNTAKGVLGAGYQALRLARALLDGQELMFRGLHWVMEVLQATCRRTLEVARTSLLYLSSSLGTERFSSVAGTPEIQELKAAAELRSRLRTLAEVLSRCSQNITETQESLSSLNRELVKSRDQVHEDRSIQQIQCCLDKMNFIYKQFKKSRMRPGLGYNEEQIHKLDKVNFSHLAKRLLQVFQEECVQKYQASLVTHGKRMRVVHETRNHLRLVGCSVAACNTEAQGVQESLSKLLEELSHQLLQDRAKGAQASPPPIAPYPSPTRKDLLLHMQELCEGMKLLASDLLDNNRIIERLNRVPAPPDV

[3] = molecular target: T2, Rhodopsin kinase GRK7 (Homo sapiens) (UniProt Q8WTQ7); test: Selectivity interaction (KinomeScan (DiscoverX)) EUB0000695a GRK7; conditions: at 100 nM
T2 sequence (whole entry): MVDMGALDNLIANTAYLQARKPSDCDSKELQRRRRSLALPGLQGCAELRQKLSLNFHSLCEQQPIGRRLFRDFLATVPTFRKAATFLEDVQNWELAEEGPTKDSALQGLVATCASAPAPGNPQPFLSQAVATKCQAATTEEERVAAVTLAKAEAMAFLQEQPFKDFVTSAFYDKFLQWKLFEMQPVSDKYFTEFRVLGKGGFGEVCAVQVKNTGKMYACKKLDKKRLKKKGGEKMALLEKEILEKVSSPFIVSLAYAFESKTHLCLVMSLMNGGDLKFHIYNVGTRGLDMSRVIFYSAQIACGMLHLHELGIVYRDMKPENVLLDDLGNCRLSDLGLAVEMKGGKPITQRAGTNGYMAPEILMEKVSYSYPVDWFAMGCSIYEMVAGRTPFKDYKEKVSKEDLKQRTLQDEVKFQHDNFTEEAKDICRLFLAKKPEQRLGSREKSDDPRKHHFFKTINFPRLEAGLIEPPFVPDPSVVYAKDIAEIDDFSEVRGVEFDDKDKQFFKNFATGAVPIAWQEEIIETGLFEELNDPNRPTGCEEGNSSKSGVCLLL

[4] = molecular target: Tyrosine-protein kinase Yes (Homo sapiens) (UniProt P07947); test: Selectivity interaction (KinomeScan (DiscoverX)) EUB0000695a YES1; conditions: at 100 nM
[5] = test system: Tyrosine-protein kinase ABL1 (Homo sapiens), P00519 [F317I]; test: Selectivity interaction (KinomeScan (DiscoverX)) EUB0001079a ABL1; conditions: at 1 µM
[6] = molecular target: cAMP-dependent protein kinase catalytic subunit beta (Homo sapiens) (UniProt P22694); conditions: at 10 µM
[7] = molecular target: Phosphatidylinositol 4-phosphate 5-kinase type-1 gamma (Homo sapiens) (UniProt O60331); conditions: at 10 µM
[8] = molecular target: T3, Non-receptor tyrosine-protein kinase TNK1 (Homo sapiens) (UniProt Q13470); test: Selectivity interaction (ProQinase) EUB0000171b TNK1
T3 sequence (whole entry): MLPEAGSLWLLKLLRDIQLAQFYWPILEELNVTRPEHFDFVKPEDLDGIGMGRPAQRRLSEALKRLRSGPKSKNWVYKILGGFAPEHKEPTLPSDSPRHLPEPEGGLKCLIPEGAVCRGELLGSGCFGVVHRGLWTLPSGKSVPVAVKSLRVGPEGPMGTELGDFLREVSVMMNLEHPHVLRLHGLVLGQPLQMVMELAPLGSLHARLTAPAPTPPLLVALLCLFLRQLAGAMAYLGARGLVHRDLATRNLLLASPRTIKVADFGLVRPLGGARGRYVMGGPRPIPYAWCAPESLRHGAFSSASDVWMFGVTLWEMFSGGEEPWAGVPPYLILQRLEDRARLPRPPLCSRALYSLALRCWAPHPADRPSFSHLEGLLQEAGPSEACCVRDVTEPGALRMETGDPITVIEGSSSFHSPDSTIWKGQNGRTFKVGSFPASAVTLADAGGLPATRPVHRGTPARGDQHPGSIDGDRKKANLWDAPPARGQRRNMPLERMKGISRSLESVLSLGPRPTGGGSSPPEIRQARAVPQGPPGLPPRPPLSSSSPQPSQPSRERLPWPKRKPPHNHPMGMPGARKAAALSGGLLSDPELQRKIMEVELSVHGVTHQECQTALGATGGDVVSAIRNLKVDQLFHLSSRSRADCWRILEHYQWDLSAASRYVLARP

[9] = molecular target: Tyrosine-protein kinase Blk (Homo sapiens) (UniProt P51451); test: Selectivity interaction (KinomeScan (DiscoverX)) EUB0000607a BLK; conditions: at 10 µM
[10] = molecular target: Tyrosine-protein kinase ABL1 (Homo sapiens, UniProt P00519); test: Selectivity interaction (KinomeScan (DiscoverX)) EUB0000607a ABL1; conditions: at 10 µM
[11] = molecular target: Epidermal growth factor receptor (Homo sapiens, UniProt P00533); test: Selectivity interaction (Kinase panel (Invitrogen)) EUB0000639a EGFR; conditions: at 200 nM
[12] = molecular target: Sphingosine kinase 1 (Homo sapiens) (UniProt Q9NYA1); test: Selectivity interaction (Kinase panel (Invitrogen)) EUB0000639a SPHK1; conditions: at 200 nM
[13] = molecular target: Serine/threonine-protein kinase PAK 4 (Homo sapiens, UniProt O96013); conditions: at 10 µM
SRSF protein kinase 1 = SRSF protein kinase 1 (Homo sapiens, UniProt Q96SB4); test: Selectivity interaction (Ambit KINOMEscan and KiNATiv profiling in Jurkat cells) EUB0000090b SRPK1; assay type: cell-based; conditions: at 1 µM

Serine/threonine-protein kinase WNK1 (Homo sapiens), sequence (Q9H4A3 whole entry, looked up): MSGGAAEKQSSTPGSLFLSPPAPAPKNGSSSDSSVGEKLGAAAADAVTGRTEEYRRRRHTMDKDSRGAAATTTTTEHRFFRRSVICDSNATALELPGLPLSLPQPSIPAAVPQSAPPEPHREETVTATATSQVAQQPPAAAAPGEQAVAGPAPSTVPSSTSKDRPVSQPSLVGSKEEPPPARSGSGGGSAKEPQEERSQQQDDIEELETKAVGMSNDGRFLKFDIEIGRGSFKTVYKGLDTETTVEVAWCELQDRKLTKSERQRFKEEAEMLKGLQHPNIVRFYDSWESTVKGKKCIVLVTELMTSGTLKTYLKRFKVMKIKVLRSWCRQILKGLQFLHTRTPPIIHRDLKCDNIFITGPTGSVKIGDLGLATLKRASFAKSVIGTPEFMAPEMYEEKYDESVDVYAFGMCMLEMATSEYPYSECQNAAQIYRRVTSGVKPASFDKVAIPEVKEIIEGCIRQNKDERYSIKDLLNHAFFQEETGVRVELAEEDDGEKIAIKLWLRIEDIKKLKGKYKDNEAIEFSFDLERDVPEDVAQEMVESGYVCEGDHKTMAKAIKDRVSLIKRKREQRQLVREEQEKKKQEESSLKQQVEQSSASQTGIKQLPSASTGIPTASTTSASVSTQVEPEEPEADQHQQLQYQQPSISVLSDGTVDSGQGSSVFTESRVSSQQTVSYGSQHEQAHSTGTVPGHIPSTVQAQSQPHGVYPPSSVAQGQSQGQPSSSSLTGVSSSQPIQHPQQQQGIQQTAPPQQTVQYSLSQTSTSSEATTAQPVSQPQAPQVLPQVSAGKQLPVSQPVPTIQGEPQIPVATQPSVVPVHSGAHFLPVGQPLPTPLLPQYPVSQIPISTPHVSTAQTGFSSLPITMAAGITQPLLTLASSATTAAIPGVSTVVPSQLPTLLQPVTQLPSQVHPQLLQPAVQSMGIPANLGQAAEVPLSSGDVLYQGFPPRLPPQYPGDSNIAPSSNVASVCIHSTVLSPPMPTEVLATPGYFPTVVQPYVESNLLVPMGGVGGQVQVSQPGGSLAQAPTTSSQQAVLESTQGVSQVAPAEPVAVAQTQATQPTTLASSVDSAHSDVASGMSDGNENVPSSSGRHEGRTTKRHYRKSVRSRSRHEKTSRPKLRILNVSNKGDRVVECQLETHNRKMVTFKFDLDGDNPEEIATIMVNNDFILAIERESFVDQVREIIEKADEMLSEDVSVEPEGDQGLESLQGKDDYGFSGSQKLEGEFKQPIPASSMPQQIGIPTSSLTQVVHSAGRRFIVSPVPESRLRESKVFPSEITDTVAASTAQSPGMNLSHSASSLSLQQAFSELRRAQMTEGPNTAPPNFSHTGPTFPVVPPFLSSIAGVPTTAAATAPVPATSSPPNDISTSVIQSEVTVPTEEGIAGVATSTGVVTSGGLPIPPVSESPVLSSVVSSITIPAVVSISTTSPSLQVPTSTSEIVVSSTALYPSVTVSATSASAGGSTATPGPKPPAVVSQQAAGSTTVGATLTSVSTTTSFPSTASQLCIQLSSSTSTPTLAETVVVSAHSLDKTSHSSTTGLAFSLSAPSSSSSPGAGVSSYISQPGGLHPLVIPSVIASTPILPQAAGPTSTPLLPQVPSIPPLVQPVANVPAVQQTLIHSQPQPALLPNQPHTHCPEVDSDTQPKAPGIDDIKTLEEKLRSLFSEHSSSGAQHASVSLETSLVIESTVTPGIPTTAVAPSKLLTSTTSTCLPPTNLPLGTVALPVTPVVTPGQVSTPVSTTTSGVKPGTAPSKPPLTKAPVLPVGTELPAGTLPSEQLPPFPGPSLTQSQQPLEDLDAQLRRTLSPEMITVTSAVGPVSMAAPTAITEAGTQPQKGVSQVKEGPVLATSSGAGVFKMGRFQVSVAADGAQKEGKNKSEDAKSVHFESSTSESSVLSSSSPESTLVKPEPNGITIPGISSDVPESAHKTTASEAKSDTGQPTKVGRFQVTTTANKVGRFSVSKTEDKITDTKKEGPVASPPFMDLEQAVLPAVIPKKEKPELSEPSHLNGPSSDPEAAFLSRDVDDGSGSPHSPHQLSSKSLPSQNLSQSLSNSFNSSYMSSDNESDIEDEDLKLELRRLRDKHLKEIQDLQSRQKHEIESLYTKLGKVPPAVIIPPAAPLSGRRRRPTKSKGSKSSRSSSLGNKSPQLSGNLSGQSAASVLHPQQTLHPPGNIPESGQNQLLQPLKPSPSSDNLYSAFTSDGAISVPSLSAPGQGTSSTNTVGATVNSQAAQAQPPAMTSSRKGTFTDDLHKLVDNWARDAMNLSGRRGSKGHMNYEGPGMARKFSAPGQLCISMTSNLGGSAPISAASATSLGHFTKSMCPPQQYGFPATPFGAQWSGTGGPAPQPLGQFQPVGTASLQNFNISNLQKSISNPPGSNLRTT
Sphingosine kinase 1 (Homo sapiens), sequence (Q9NYA1 whole entry): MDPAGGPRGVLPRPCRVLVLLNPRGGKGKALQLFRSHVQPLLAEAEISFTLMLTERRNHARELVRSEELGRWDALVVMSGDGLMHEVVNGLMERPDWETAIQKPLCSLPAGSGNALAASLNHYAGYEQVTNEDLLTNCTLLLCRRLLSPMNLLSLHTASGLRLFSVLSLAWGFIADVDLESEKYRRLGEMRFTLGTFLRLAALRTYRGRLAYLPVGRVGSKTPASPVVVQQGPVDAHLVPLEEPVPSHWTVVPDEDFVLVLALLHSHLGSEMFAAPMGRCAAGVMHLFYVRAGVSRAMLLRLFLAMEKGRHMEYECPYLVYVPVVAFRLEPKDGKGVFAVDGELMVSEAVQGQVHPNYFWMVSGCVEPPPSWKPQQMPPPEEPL
Serine/threonine-protein kinase PAK 4, sequence (O96013 whole entry, looked up): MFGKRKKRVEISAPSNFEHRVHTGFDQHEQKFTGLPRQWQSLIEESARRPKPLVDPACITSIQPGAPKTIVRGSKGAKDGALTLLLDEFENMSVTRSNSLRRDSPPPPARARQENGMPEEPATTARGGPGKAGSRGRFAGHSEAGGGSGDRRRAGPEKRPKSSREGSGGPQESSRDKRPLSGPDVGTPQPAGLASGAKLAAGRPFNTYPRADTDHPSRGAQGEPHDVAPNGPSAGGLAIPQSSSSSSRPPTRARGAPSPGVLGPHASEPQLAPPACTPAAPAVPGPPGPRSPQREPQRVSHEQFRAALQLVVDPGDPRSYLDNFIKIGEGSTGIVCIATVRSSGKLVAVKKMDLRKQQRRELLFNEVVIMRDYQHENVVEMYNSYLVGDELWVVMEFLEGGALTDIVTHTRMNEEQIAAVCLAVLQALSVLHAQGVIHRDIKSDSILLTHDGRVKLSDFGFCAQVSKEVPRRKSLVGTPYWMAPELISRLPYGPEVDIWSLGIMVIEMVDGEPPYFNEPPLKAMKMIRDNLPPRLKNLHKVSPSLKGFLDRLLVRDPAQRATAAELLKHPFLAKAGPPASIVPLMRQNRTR
Tyrosine-protein kinase ABL1, sequence (P00519 whole entry): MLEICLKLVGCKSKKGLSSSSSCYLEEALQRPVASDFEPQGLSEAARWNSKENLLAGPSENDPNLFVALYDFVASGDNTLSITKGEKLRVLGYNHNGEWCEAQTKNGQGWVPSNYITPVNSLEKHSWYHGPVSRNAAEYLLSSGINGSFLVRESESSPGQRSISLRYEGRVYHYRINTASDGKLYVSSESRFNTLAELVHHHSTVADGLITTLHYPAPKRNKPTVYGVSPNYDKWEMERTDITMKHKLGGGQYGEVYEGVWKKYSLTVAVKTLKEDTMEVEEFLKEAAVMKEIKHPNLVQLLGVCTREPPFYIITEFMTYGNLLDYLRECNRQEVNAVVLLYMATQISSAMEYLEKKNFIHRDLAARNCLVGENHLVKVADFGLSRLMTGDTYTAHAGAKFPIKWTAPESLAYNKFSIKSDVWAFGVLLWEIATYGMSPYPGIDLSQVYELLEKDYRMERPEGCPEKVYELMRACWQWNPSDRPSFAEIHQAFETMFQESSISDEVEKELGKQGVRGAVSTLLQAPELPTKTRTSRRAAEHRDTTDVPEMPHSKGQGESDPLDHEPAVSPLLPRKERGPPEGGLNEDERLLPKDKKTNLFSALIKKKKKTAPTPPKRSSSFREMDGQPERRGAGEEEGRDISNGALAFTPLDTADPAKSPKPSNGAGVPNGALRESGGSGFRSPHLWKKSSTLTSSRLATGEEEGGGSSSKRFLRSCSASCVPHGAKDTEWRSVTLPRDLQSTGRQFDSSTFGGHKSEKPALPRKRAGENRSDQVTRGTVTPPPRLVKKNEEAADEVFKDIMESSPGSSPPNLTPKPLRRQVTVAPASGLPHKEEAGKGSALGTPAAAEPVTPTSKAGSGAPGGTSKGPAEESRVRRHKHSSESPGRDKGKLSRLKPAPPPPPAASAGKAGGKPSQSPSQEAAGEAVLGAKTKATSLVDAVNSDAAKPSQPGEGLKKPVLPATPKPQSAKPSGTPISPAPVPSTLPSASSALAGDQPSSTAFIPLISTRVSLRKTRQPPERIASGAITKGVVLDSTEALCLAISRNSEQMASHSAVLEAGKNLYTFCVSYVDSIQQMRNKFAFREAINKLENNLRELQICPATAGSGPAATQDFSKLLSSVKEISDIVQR
Tyrosine-protein kinase Yes (Homo sapiens), sequence (P07947 2-543 limits assumed): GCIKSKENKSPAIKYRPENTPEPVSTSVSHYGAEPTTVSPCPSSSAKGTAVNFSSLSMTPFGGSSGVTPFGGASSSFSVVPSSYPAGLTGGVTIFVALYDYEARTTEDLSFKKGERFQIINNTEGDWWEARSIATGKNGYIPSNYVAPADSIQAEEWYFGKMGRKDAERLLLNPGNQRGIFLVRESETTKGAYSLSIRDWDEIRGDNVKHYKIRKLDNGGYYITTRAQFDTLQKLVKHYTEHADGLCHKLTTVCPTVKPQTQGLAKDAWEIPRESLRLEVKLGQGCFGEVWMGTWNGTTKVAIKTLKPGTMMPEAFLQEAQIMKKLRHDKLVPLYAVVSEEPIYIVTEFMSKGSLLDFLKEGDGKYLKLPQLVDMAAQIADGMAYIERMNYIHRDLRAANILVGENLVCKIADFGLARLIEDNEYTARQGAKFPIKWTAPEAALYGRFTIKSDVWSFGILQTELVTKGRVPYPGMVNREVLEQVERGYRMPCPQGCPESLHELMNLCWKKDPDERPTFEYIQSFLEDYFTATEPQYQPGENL
Tyrosine-protein kinase ABL1 (Homo sapiens), P00519 [F317I], sequence (P00519 whole entry F317I): as the sequence (P00519 whole entry) above, with F317I counted along it

Molecule C=CC(=O)Nc1ccc(C(=O)Nc2[nH]nc3c2CN(C(=O)N[C@H](CN(C)C)c2ccccc2)C3(C)C)cc1 has a % of engagement ([1]; Selectivity number of off-targets 0.0, Selectivity number of targets 233.0, Source Knowledge https://www.sciencedirect.com/science/article/pii/S2451945619300674?via%3Dihub) of -16.3% and a % of engagement [1] of -12.9%.

C=CC(=O)Nc1cc(-n2c(=O)ccc3cnc4ccc(-c5ccc(NS(C)(=O)=O)cc5)cc4c32)ccc1C showed a % of control ([2]; at 1 µM) of 100% and a % of control ([2]; at 10 µM) of 100%.

Molecule Cc1cc(F)c(C(=O)Nc2cccc(-c3nncn3C(C)C)n2)cc1-n1cnc(C2CC2)c1 has a % of control [3] of 97% and a % of control [4] of 73%.

Nc1cnc(N2CCc3cc(S(=O)(=O)Nc4c(F)cc(Cl)cc4F)cc(N4CCCC4=O)c32)nc1 [TP-020n] was tested, and the % of control [5] was 100%.

For Cc1cc([C@@H](C)Nc2ccccc2C(=O)O)c2nc(N3CCOCC3)cc(=O)n2c1 [AZD-6482], the % of control [6] was 100% and the % of control [7] was 63%.

For C=CC(=O)Nc1cccc(C(=O)Nc2ccc(Nc3cc(-c4[nH]c(SC)nc4C)ccn3)cc2)c1, the % of control ([8]; at 1 µM) was 91% and the % of control ([8]; at 5 µM) was 61%.

In the case of CNC(=O)Nc1ccc(-c2nc(N3CC4CCC(C3)O4)c3cnn(C4CCC5(CC4)OCCO5)c3n2)cc1, the % of control [9] is reported as 96% and the % of control [10] is reported as 100%.

Work on CC[C@@H]1[C@H](F)C(=O)N[C@@H]1COc1nccc2cc(C(N)=O)c(OC)cc12 [ZIMLOVISERTIB] yielded a % of inhibition [11] of 1.25% and a % of inhibition [12] of 2.77%.

CCN(CC)CCCCNc1ncc2cc(-c3cc(OC)cc(OC)c3)c(NC(=O)NC(C)(C)C)nc2n1 showed a % of control [13] of 100%.

In the case of CN(C)C/C=C/C(=O)Nc1ccc(C(=O)N2CCCC(Nc3ncc(Cl)c(-c4c[nH]c5ccccc45)n3)C2)cc1 (configuration not stated), the % of control (SRSF protein kinase 1) is reported as 52%.

— ChEMBL document CHEMBL5465560, “Selectivity Literature for EUbOPEN Chemogenomic Library” (2024)
